Type in all cases: cell-based
Common to all, as to details: 48 hours

In experiment [1] the test system is IFN-γ. The experiment can be described thus: IFN-γ production by PHA-stimulated human PBMC (OptEIA human IFN-g ELISA). The method, boiled down:
(§1)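 Compounds tested on PHA (2 μg/ml)-stimulated human PBMC, 1×10^5 cells/well, 48 h, at 10, 1, 0.1 and 0.01 μM or semilog titration for IC50. Cytokines in culture supernatant: IL-17AA/AF by Luminex BioPlex; IL-17AA, IL-17FF, IFN-γ by separate ELISAs.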
(An ELISA detects its analyte on a solid surface through an enzyme-linked reagent.)

The test system of experiment [2] is IL-17FF. The experiment can be described thus: IL-17FF production by PHA-stimulated human PBMC (human IL-17F ELI-Pair). The method, boiled down: as §1
Experiment [3] concerns PBMC from healthy human donors. The experiment is described as follows: T cell proliferation assay (PHA-stimulated human PBMC, BrdU ELISA). The gist of the method: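 Proliferation was quantified by BrdU ELISA 48 hours after starting culture of 1×10⁵ human PBMC per well with test compound and 2 μg/ml phytohaemagglutinin. Cells came from healthy donors via Ficoll separation and were kept in RPMI1640 with 10% dialysed heat-inactivated FCS.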
For orientation: Dividing cells build labelled thymidine or BrdU into new DNA.

Setting [4] is: PHA-stimulated human PBMC, column C, read-out: IC50 (IFNγ).
Setting [5] is: PHA-stimulated human PBMC, column B, read-out: IC50 (IL-17FF).
Where [6] appears, read: PHA-stimulated human PBMC, column D, read-out: IC50 (Tcell proliferation).

Read-outs that look alike come from different tables or passages of the source.

Consider `Nc1c(-c2c(F)cccc2Cl)noc1-c1cnn(-c2cccc(F)c2)c1C(F)(F)F` [Example I-117, 3-(2-chloro-6-fluorophenyl)-5-(1-(3-fluorophenyl)-5-(trifluoromethyl)-1H-pyrazol-4-yl)isoxazol-4-amine], for which the IC50 in experiment [1] (setting [4]), in experiment [2] (setting [5]) and in experiment [3] (setting [6]) was 100 to 1000 nM throughout.

In the case of `CCOC(=O)c1c(-c2ccncc2F)noc1-c1cnn(-c2ccncc2)c1C(F)(F)F` [IB-3, ethyl 3-(3-fluoropyridin-4-yl)-5-(1-(pyridin-4-yl)-5-(trifluoromethyl)-1H-pyrazol-4-yl)isoxazole-4-carboxylate], the IC50 in experiment [1] (setting [4]) lay in the range of 10 to 100 nM; in experiment [2] (setting [5]), 100 to 1000 nM; in experiment [3] (setting [6]) it was 100 to 1000 nM.

Take `CON(C)C(=O)c1c(-c2c(F)cccc2Cl)noc1-c1cnn(-c2ccncc2)c1C(F)(F)F` [IB-59, 3-(2-chloro-6-fluorophenyl)-N-methoxy-N-methyl-5-(1-(pyridin-4-yl)-5-(trifluoromethyl)-1H-pyrazol-4-yl)isoxazole-4-carboxamide]: the IC50 in experiment [1] (setting [4]), in experiment [2] (setting [5]) and in experiment [3] (setting [6]) was 1000 to 10000 nM throughout.

`NC(=S)c1c(-c2c(F)cccc2Cl)noc1-c1cnn(-c2ccccc2F)c1C(F)(F)F` [IB-102, 3-(2-chloro-6-fluorophenyl)-5-(1-(2-fluorophenyl)-5-(trifluoromethyl)-1H-pyrazol-4-yl)isoxazole-4-carbothioamide]: the IC50 in experiment [1] (setting [4]), in experiment [2] (setting [5]) and in experiment [3] (setting [6]) was 100 to 1000 nM throughout.

For `Fc1cccc(Cl)c1-c1noc(-c2cnn(-c3cccc(Cl)c3)c2C(F)(F)F)c1-c1nnco1` [Example B-5, 2-(3-(2-chloro-6-fluorophenyl)-5-(1-(3-chlorophenyl)-5-(trifluoromethyl)-1H-pyrazol-4-yl)isoxazol-4-yl)-1,3,4-oxadiazole], the IC50 is less than 10 nM in experiment [1] (human PBMC, 2 μg/ml PHA, read-out: C: IC50 (IFNγ)); less than 10 nM in experiment [2] (human PBMC, 2 μg/ml PHA, read-out: B: IC50 (IL-17FF)); less than 10 nM in experiment [3] (human PBMC, 2 μg/ml PHA, read-out: D: IC50 (Tcell proliferation)).

As to `CNC(=O)c1c(-c2ccccc2Cl)noc1-c1cnn(-c2cccc(Cl)c2)c1C(F)(F)F` [IB-63, 3-(2-chlorophenyl)-5-(1-(3-chlorophenyl)-5-(trifluoromethyl)-1H-pyrazol-4-yl)-N-methylisoxazole-4-carboxamide], the IC50 in experiment [1] (setting [4]), in experiment [2] (setting [5]) and in experiment [3] (setting [6]) was 100 to 1000 nM each time.

Take `CCOC(=O)c1c(-c2onc(-c3c(F)cccc3Cl)c2C(=O)OC)cnn1-c1ccccc1F` [Example I-41, methyl 3-(2-chloro-6-phenyl)-5-(5-(ethoxycarbonyl)-1-(2-fluorophenyl)-1H-pyrazol-4-yl)isoxazole-4-carboxylate]: the IC50 in experiment [1] (setting [4]), in experiment [2] (setting [5]) and in experiment [3] (setting [6]) was 100 to 1000 nM each time.

In the case of `CCOC(=O)c1c(-c2c(Cl)cncc2Cl)noc1-c1cnn(-c2ccccc2F)c1C(F)(F)F` [IB-9, ethyl 3-(3,5-dichloropyridin-4-yl)-5-(1-(2-fluorophenyl)-5-(trifluoromethyl)-1H-pyrazol-4-yl)isoxazole-4-carboxylate], the IC50 in experiment [1] (setting [4]), in experiment [2] (setting [5]) and in experiment [3] (setting [6]) was 10 to 100 nM throughout.

Consider `CCOC(=O)c1c(-c2c(F)cccc2Cl)noc1-c1cnn(CC2CCOCC2)c1C(F)(F)F` [IB-81, ethyl 3-(2-chloro-6-fluorophenyl)-5-(1-((tetrahydro-2H-pyran-4-yl)methyl)-5-(trifluoromethyl)-1H-pyrazol-4-yl)isoxazole-4-carboxylate], for which the IC50 in experiment [1] (setting [4]), in experiment [2] (setting [5]) and in experiment [3] (setting [6]) was 100 to 1000 nM each time.

In the case of `COC(=O)c1c(-c2c(F)cccc2Cl)noc1-c1cnn(-c2cc(Cl)cc(Cl)c2)c1C(F)(F)F` [Example I-68, methyl 3-(2-chloro-6-fluorophenyl)-5-(1-(3,5-dichlorophenyl)-5-(trifluoromethyl)-1H-pyrazol-4-yl)isoxazole-4-carboxylate], the IC50 in experiment [1] (setting [4]), in experiment [2] (setting [5]) and in experiment [3] (setting [6]) was 10 to 100 nM throughout.

For the compound `CCOC(=O)c1c(-c2ccncc2F)noc1-c1cnn(-c2cccc(NC(C)=O)c2)c1C(F)(F)F` [IB-6, ethyl 5-(1-(3-acetamidophenyl)-5-(trifluoromethyl)-1H-pyrazol-4-yl)-3-(3-fluoropyridin-4-yl)isoxazole-4-carboxylate], the results for the IC50 in experiment [1] (setting [4]), in experiment [2] (setting [5]) and in experiment [3] (setting [6]) were less than 10 nM, 10 to 100 nM and 100 to 1000 nM, respectively.

In the case of `CCOC(=O)c1c(-c2c(Cl)cncc2Cl)noc1-c1cnn(-c2ccccn2)c1C(F)(F)F` [IB-5, ethyl 3-(3,5-dichloropyridin-4-yl)-5-(1-(pyridin-2-yl)-5-(trifluoromethyl)-1H-pyrazol-4-yl)isoxazole-4-carboxylate], the IC50 was 100 to 1000 nM in experiment [1] (setting [4]), 1000 to 10000 nM in experiment [2] (setting [5]) and 1000 to 10000 nM in experiment [3] (setting [6]).

As to `O=C(c1c(-c2c(F)cccc2Cl)noc1-c1cnn(-c2ccccc2F)c1C(F)(F)F)N1CCOCC1` [Example I-16, (3-(2-chloro-6-fluorophenyl)-5-(1-(2-fluorophenyl)-5-(trifluoromethyl)-1H-pyrazol-4-yl)isoxazol-4-yl)(morpholino)methanone], the values for the IC50 in experiment [1] (setting [4]), in experiment [2] (setting [5]) and in experiment [3] (setting [6]) were 100 to 1000 nM, 100 to 1000 nM and 1000 to 10000 nM, respectively.

For the compound `COC(=O)c1c(-c2cccc(F)c2)noc1-c1cnn(-c2cccc(F)c2)c1C(F)(F)F` [Example I-106, methyl 3-(3-fluorophenyl)-5-(1-(3-fluorophenyl)-5-(trifluoromethyl)-1H-pyrazol-4-yl)isoxazole-4-carboxylate], the IC50 in experiment [1] (setting [4]), in experiment [2] (setting [5]) and in experiment [3] (setting [6]) was 1000 to 10000 nM each time.

On to `CON(C)C(=O)c1c(-c2ccccc2F)noc1-c1cnn(-c2cccc(F)c2)c1C(F)(F)F` [Example I-94, 3-(2-fluorophenyl)-5-(1-(3-fluorophenyl)-5-(trifluoromethyl)-1H-pyrazol-4-yl)-N-methoxy-N-methylisoxazole-4-carboxamide], for which the IC50 in experiment [1] (setting [4]), in experiment [2] (setting [5]) and in experiment [3] (setting [6]) was 1000 to 10000 nM in each case.

In the case of `CCOC(=O)c1c(-c2c(Cl)cncc2Cl)noc1-c1cnn(-c2cccc(NC(C)=O)c2)c1C(F)(F)F` [IB-11, ethyl 5-(1-(3-acetamidophenyl)-5-(trifluoromethyl)-1H-pyrazol-4-yl)-3-(3,5-dichloropyridin-4-yl)isoxazole-4-carboxylate], the IC50 was 10 to 100 nM in experiment [1] (setting [4]), 10 to 100 nM in experiment [2] (setting [5]) and 100 to 1000 nM in experiment [3] (setting [6]).

Regarding `CNC(=O)c1c(-c2c(Cl)cccc2Cl)noc1-c1cnn(-c2cccc(F)c2)c1C(F)(F)F` [Example I-110, 3-(2,6-dichlorophenyl)-5-(1-(3-fluorophenyl)-5-(trifluoromethyl)-1H-pyrazol-4-yl)-N-methylisoxazole-4-carboxamide], the IC50 in experiment [1] (setting [4]), in experiment [2] (setting [5]) and in experiment [3] (setting [6]) was 10 to 100 nM each time.

On to `Fc1cccc(Cl)c1-c1noc(-c2cnn(-c3ccncc3)c2C(F)(F)F)c1Br` [IB-83, 4-bromo-3-(2-chloro-6-fluorophenyl)-5-(1-(pyridin-4-yl)-5-(trifluoromethyl)-1H-pyrazol-4-yl)isoxazole], for which the IC50 was in the range of 1000 to 10000 nM in experiment [1] (setting [4]), 100 to 1000 nM in experiment [2] (setting [5]) and 1000 to 10000 nM in experiment [3] (setting [6]).
